Laboratory results: patent publication US20250122210A1, “SMALL MOLECULE INHIBITORS OF KRAS G12D MUTANT” (DANA-FARBER CANCER INSTITUTE, INC., priority 2021, published 2025)

Tests used:
Type in all cases: cell-based
MIA-PaCa-2 cells = assay: Anti-proliferative activity in MIA-PaCa-2 cells (CellTiter-Glo); settings: Homo sapiens, 72 h, MIA-PaCa-2 cells (KRAS G12C), three days, read-out: IC50 (cell viability)
Procedure: MIA-PaCa-2 cells were treated with KRAS inhibitors at the density of 800 cells/well in 384-well plate for three days. Cell viability was evaluated using CellTiter-Glo® Luminescent Cell Viability Assay.

AGS cells = assay: Anti-proliferative activity in AGS cells (CellTiter-Glo); settings: Homo sapiens, 72 h, AGS cells (KRAS G12D), three days, read-out: IC50 (cell viability)
Procedure: AGS cells were treated with KRAS inhibitors at the density of 800 cells/well in 384-well plate for three days. Cell viability was evaluated using CelITiter-Glo® Luminescent Cell Viability Assay. […] AGS cells harbor KRAS G12D mutation. The improved antiproliferation effects of the compounds indicate stronger inhibition towards G12D mutation.

[1] = tested on: p-ERK in PC-9 cells (KRAS wild-type); assay: Downstream evaluation in PC-9 cells (p-ERK immunoblot); settings: Homo sapiens, 8 h and 24 h, read-out: inhibition of the downstream signaling measured by p-ERK
Procedure: PC-9 cells were treated with Compound 006 (DGY-12-161) in the 6-well plate at indicated concentrations for 8 h and 24 h, respectively. The intensities of the bands were quantified in LICOR Odyssey® CLx Imaging System. PC-9 cells are KRAS wild-type.

[2] = tested on: downstream signaling (p-ERK) in PANC-1 cells (KRAS G12D); assay: Downstream evaluation in PANC-1 cells (p-ERK immunoblot); settings: Homo sapiens, 8 h and 24 h, read-out: IC50 of inhibition of downstream signaling
Procedure: PANC-1 cells were treated with Compound 006 (DGY-12-161) in the 6-well plate at indicated concentrations for 8 h and 24 h, respectively. The intensities of the bands were quantified in LICOR Odyssey® CLx Imaging System. PANC-1 cells harbor KRAS G12D mutation.

Structure (SMILES)	IC50 (MIA-PaCa-2 cells) [nM]	IC50 (AGS cells) [nM]	inhibition at 10 µM [1] [%]	IC50 [2] [nM]
Oc1cc(-c2c(Cl)cc3c(N4[C@@H]5CC[C@H]4CNC5)nc(OCC45CCCN4CCC5)nc3c2F)c2ccccc2c1 [Compound 001, 4-(4-((1R,5S)-3,8-diazabicyclo[3.2.1]octan-8-yl)-6-chloro-8-fluoro-2-((tetrahydro-1H-pyrrolizin-7a(5H)-yl)methoxy)quinazolin-7-yl)naphthalen-2-ol]	2300	600	–	–
CN(C)C1CN(c2nc(N3[C@@H]4CC[C@H]3CNC4)c3cc(Cl)c(-c4cc(O)cc5ccccc45)c(F)c3n2)C1 [Compound 006, 4-(4-((1R,5S)-3,8-diazabicyclo[3.2.1]octan-8-yl)-6-chloro-2-(3-(dimethylamino)azetidin-1-yl)-8-fluoroquinazolin-7-yl)naphthalen-2-ol]	2200	1400	~50	< 10000
